Source: PubChem BioAssay AID1963853 (Molecular Pharmacology Branch, DTP, NCI, 2024)

System: 266295-075-R-J1-PDC spheroid viability
Experiment: Anticancer human tumor 266295-075-R-J1-PDC patient-derived head and neck squamous carcinoma cell line growth inhibition [POLQ]
Details: spheroids with HUVEC and MSC; for IC50: curve of first compound; for viability, T/C: stronger effect = lower value; active means viability on the fitted dose curve at most 10% of control; inactive means the rest
Method in brief: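 Patient-derived tumour cells were co-cultured with HUVEC and mesenchymal stem cells as multicellular spheroids at 37 °C. They were treated with POLQ inhibitors (novobiocin, ART-558, RP6685) alone or combined with other agents. Top concentrations were at or near clinical Cmax (otherwise 10 microM; SN-38 at 1 microM), decreasing in half-log steps.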

[1] = second compound 0.0316 µM, first compound 0.0316 µM
[2] = second compound 0.0316 µM, first compound 0.1 µM
[3] = second compound 0.0316 µM, first compound 0.316 µM
[4] = second compound 0.0316 µM, first compound 1 µM
[5] = second compound 0.0316 µM, first compound 3.16 µM
[6] = second compound 0.0316 µM, first compound 10 µM
[7] = second compound 0.1 µM, first compound 0.0316 µM
[8] = second compound 0.1 µM, first compound 0.1 µM
[9] = second compound 0.1 µM, first compound 0.316 µM
[10] = second compound 0.1 µM, first compound 1 µM
[11] = second compound 0.1 µM, first compound 3.16 µM
[12] = second compound 0.1 µM, first compound 10 µM
[13] = second compound 0.316 µM, first compound 0.0316 µM
[14] = second compound 0.316 µM, first compound 0.1 µM
[15] = second compound 0.316 µM, first compound 0.316 µM
[16] = second compound 0.316 µM, first compound 1 µM
[17] = second compound 0.316 µM, first compound 3.16 µM
[18] = second compound 0.316 µM, first compound 10 µM
[19] = second compound 1 µM, first compound 0.0316 µM
[20] = second compound 1 µM, first compound 0.1 µM
[21] = second compound 1 µM, first compound 0.316 µM
[22] = second compound 1 µM, first compound 1 µM
[23] = second compound 1 µM, first compound 3.16 µM
[24] = second compound 1 µM, first compound 10 µM
[25] = second compound 3.16 µM, first compound 0.0316 µM
[26] = second compound 3.16 µM, first compound 0.1 µM
[27] = second compound 3.16 µM, first compound 0.316 µM
[28] = second compound 3.16 µM, first compound 1 µM
[29] = second compound 3.16 µM, first compound 3.16 µM
[30] = second compound 3.16 µM, first compound 10 µM
[31] = second compound 10 µM, first compound 0.0316 µM
[32] = second compound 10 µM, first compound 0.1 µM
[33] = second compound 10 µM, first compound 0.316 µM
[34] = second compound 10 µM, first compound 1 µM
[35] = second compound 10 µM, first compound 3.16 µM
[36] = second compound 10 µM, first compound 10 µM
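Further: spheroids exposed to compounds for seven days before readout.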

CCCS(=O)(=O)Nc1ccc(F)c(C(=O)c2c[nH]c3ncc(-c4ccc(Cl)cc4)cc23)c1F + COC1C(OC(N)=O)C(O)C(Oc2ccc3c(O)c(NC(=O)c4ccc(O)c(CC=C(C)C)c4)c(=O)oc3c2C)OC1(C)C
> 10 µM: IC50 (second compound 0.0316 µM) | IC50 (second compound 0.1 µM) | IC50 (second compound 0.316 µM) | IC50 (second compound 1 µM) | IC50 (second compound 3.16 µM) | IC50 (second compound 10 µM)
inactive: viability, T/C [1] 99% | viability, T/C [2] 116% | viability, T/C [3] 107% | viability, T/C [4] 115% | viability, T/C [5] 169% | viability, T/C [6] 172% | viability, T/C [7] 101% | viability, T/C [8] 121% | viability, T/C [9] 105% | viability, T/C [10] 112% | viability, T/C [11] 157% | viability, T/C [12] 222% | viability, T/C [13] 116% | viability, T/C [14] 102% | viability, T/C [15] 102% | viability, T/C [16] 128% | viability, T/C [17] 155% | viability, T/C [18] 195% | viability, T/C [19] 117% | viability, T/C [20] 102% | viability, T/C [21] 102% | viability, T/C [22] 113% | viability, T/C [23] 143% | viability, T/C [24] 172% | viability, T/C [25] 98.7% | viability, T/C [26] 87.5% | viability, T/C [27] 140% | viability, T/C [28] 130% | viability, T/C [29] 139% | viability, T/C [30] 178% | viability, T/C [31] 112% | viability, T/C [32] 95.5% | viability, T/C [33] 111% | viability, T/C [34] 153% | viability, T/C [35] 144% | viability, T/C [36] 166%

CNCc1ccc(-c2[nH]c3cc(F)cc4c3c2CCNC4=O)cc1 + COC1C(OC(N)=O)C(O)C(Oc2ccc3c(O)c(NC(=O)c4ccc(O)c(CC=C(C)C)c4)c(=O)oc3c2C)OC1(C)C
inactive: viability, T/C [1] 95.1% | viability, T/C [2] 79.6% | viability, T/C [3] 86.8% | viability, T/C [4] 78.3% | viability, T/C [5] 83.8% | viability, T/C [6] 98.2% | viability, T/C [7] 90.2% | viability, T/C [8] 85.1% | viability, T/C [9] 97.2% | viability, T/C [10] 86.9% | viability, T/C [11] 91.3% | viability, T/C [12] 99% | viability, T/C [13] 111% | viability, T/C [14] 83.3% | viability, T/C [15] 93.1% | viability, T/C [16] 91.5% | viability, T/C [17] 108% | viability, T/C [18] 114% | viability, T/C [19] 92.8% | viability, T/C [20] 92.4% | viability, T/C [21] 90.5% | viability, T/C [22] 83.7% | viability, T/C [23] 107% | viability, T/C [24] 105% | viability, T/C [25] 97.7% | viability, T/C [26] 85.5% | viability, T/C [27] 92.1% | viability, T/C [28] 81% | viability, T/C [29] 108% | viability, T/C [30] 115% | viability, T/C [31] 94.2% | viability, T/C [32] 82.5% | viability, T/C [33] 96.7% | viability, T/C [34] 101% | viability, T/C [35] 113% | viability, T/C [36] 105%
> 10 µM: IC50 (second compound 0.0316 µM) | IC50 (second compound 0.1 µM) | IC50 (second compound 0.316 µM) | IC50 (second compound 1 µM) | IC50 (second compound 3.16 µM) | IC50 (second compound 10 µM)

COc1cccc(OCCCN)c1-c1cc(Nc2cnc(C#N)cn2)n[nH]1 + COC1C(OC(N)=O)C(O)C(Oc2ccc3c(O)c(NC(=O)c4ccc(O)c(CC=C(C)C)c4)c(=O)oc3c2C)OC1(C)C
inactive: viability, T/C (second compound 0.0316 µM, first compound 0.00316 µM) 87.7% | viability, T/C (second compound 0.0316 µM, first compound 0.01 µM) 81.7% | viability, T/C [1] 71.1% | viability, T/C [2] 64.2% | viability, T/C [3] 67.1% | viability, T/C [4] 71.7% | viability, T/C (second compound 0.1 µM, first compound 0.00316 µM) 109% | viability, T/C (second compound 0.1 µM, first compound 0.01 µM) 89.8% | viability, T/C [7] 84% | viability, T/C [8] 68.7% | viability, T/C [9] 65.6% | viability, T/C [10] 75.6% | viability, T/C (second compound 0.316 µM, first compound 0.00316 µM) 88.8% | viability, T/C (second compound 0.316 µM, first compound 0.01 µM) 85.4% | viability, T/C [13] 78.6% | viability, T/C [14] 70.6% | viability, T/C [15] 81.1% | viability, T/C [16] 70% | viability, T/C (second compound 1 µM, first compound 0.00316 µM) 96.7% | viability, T/C (second compound 1 µM, first compound 0.01 µM) 89.8% | viability, T/C [19] 76.4% | viability, T/C [20] 66.1% | viability, T/C [21] 72% | viability, T/C [22] 69.1% | viability, T/C (second compound 3.16 µM, first compound 0.00316 µM) 92.3% | viability, T/C (second compound 3.16 µM, first compound 0.01 µM) 96.7% | viability, T/C [25] 78.6% | viability, T/C [26] 74.3% | viability, T/C [27] 78.3% | viability, T/C [28] 76.1% | viability, T/C (second compound 10 µM, first compound 0.00316 µM) 87.6% | viability, T/C (second compound 10 µM, first compound 0.01 µM) 90.9% | viability, T/C [31] 70.4% | viability, T/C [32] 65.1% | viability, T/C [33] 66.5% | viability, T/C [34] 69.6%
> 1 µM: IC50 (second compound 0.0316 µM) | IC50 (second compound 0.1 µM) | IC50 (second compound 0.316 µM) | IC50 (second compound 1 µM) | IC50 (second compound 3.16 µM) | IC50 (second compound 10 µM)
